According to patent US9510598B2, “Nitrogen-containing heterocyclic compounds for plant disease control” (BAYER CROPSCIENCE AG, priority 2012, dated 2016):
Values joined by “and” are separate entries in the source; they are usually repeats but may differ in a detail not shown here. Equal entries are not always repeated. Where two headings read alike, the source gives them in different places.

Tests used:
Sphaerotheca fuliginea = test: In vivo preventive test on Sphaerotheca fuliginea (powdery mildew on cucurbits); conditions: 500 ppm; gherkin plants sprayed 24 hours before contamination; grading 12 days after contamination vs control plants
Experimental: Gherkin plants (“Vert petit de Paris” variety), sown in starter cups on a 50/50 peat soil-pozzolana substrate and grown at 24° C., are treated at the Z11 cotyledon stage by spraying with the active ingredient prepared as described above. Plants, used as controls, are treated with the mixture of acetone/tween/DMSO/water not containing the active material. After 24 hours, the plants are contaminated by spraying the cotyledons with an aqueous suspension of Sphaerotheca fuliginea spores (100 000 spores per ml). The spores are collected from infected plants. […] Grading (% of efficacy) is carried out 12 days after the contamination, in comparison with the control plants.

Botrytis cinerea = test: In vivo preventive test on Botrytis cinerea (grey mould); conditions: 500 ppm; gherkin plants sprayed 24 hours before contamination; grading 4-5 days after contamination vs control plants
Experimental: Gherkin plants (“Vert petit de Paris” variety), sown in starter cups on a 50/50 peat soil-pozzolana substrate and grown at 24° C., are treated at the Z11 cotyledon stage by spraying with the active ingredient prepared as described above. Plants, used as controls, are treated with the mixture of acetone/tween/DMSO/water not containing the active material. After 24 hours, the plants are contaminated by spraying the cotyledons with an aqueous suspension of cryopreserved Botrytis cinerea spores (50 000 spores per ml). The spores are suspended in a nutrient solution composed of 10 g/L of PDB, 50 g/L of D-Fructose, 2 g/L of NH4NO3 and 1 g/L of KH2PO4. The contaminated gherkin plants are incubated at 17° C. and at 80% relative humidity. Grading (% of efficacy) is carried out 4-5 days after the contamination, in comparison with the control plants.

[1] = assay type: physicochemical
Septoria tritici = test: In vivo preventive test on Septoria tritici (leaf spot on wheat); conditions: 500 ppm; wheat plants sprayed 24 hours before contamination; grading 21 to 28 days after contamination vs control plants
Method in brief: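 Scipion wheat at 1-leaf stage sprayed with compound, controls receiving acetone/tween/DMSO/water vehicle; 24 h later leaves inoculated with Septoria tritici spores (500 000 spores per ml). Efficacy (%) graded versus control plants 21 to 28 days after contamination.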

[2] = method [a]: HPLC/LC-MS on reversed phase at pH 2.7, 0.1% formic acid in water / acetonitrile, gradient 10% to 95% acetonitrile
[3] = HPLC on reversed phase columns, method [a]: pH 2.7, 0.1% formic acid in water / acetonitrile, linear gradient 10% to 95% acetonitrile
[4] = method [a]: HPLC/LC-MS on reversed phase at pH 2.7, 0.1% formic acid in water / acetonitrile, linear gradient 10% to 95% acetonitrile

For `CCOC(=O)CC(C)NC(=O)C1(C)CC(c2ccc3ncc(Br)cc3c2)=NO1` (mixture of isomers) [compound 505], the “% of efficacy (protection)” value (Sphaerotheca fuliginea) was 98% and the “% of efficacy (protection)” value (Botrytis cinerea) was 75%.

In the case of `COCC(C)NC(=O)C1(C)CC(c2ccc3ncc(Br)cc3c2)=NO1` (racemic) [compound 368], the “log P” value [1, 2] is reported as 2.54[a], the “% of efficacy (protection)” value (Septoria tritici) is reported as 100% and the “% of efficacy (protection)” value (Sphaerotheca fuliginea) is reported as 100%.

With `CCC(COC)NC(=O)C1(C)CC(c2ccc3ncc(Br)cc3c2)=NO1` (racemic) [compound 377] the “log P” value [1, 2] was 2.88[a], the “% of efficacy (protection)” value (Septoria tritici) was 100% and the “% of efficacy (protection)” value (Sphaerotheca fuliginea) was 98%.

With `C#Cc1cnc2ccc(C3=NOC(CC)(C(=O)NC4CC4)C3)cc2c1` (racemic) [compound 439] the “log P” value [1, 2] was 2.44[a], the “% of efficacy (protection)” value (Septoria tritici) was 93% and the “% of efficacy (protection)” value (Sphaerotheca fuliginea) was 78%.

In the case of `CCOCCCNC(=O)C1(OC)CC(c2ccc3ncc(I)cc3c2)=NO1` (racemic) [compound 448], the “log P” value [1, 2] is reported as 2.80[a], the “% of efficacy (protection)” value (Septoria tritici) is reported as 98% and the “% of efficacy (protection)” value (Sphaerotheca fuliginea) is reported as 100%. For the same molecule, the “% of efficacy (protection)” value (Botrytis cinerea) was 98%.

For `C#Cc1cnc2c(Cl)cc(C3=NOC(C)(C(=O)NCCCOCC)C3)cc2c1` (racemic) [compound 545], the “log P” value [1, 3] was 2.94[a], the “% of efficacy (protection)” value (Septoria tritici) was 100% and the “% of efficacy (protection)” value (Sphaerotheca fuliginea) was 100%. The “% of efficacy (protection)” value (Botrytis cinerea) was 100%.

With `C#Cc1cnc2c(C)cc(C3=NOC(C)(C(=O)NCCCOCC)C3)cc2c1` (racemic) [compound 546] the “log P” value [1, 3] was 3.04[a], the “% of efficacy (protection)” value (Septoria tritici) was 83% and the “% of efficacy (protection)” value (Sphaerotheca fuliginea) was 100%. For the same molecule, the “% of efficacy (protection)” value (Botrytis cinerea) was 100%.

With `CCOCCCNC(=O)C1(C)CC(c2cc(C)c3ncc(Br)cc3c2)=NO1` (racemic) [compound 547] the “log P” value [1, 3] was 3.48[a], the “% of efficacy (protection)” value (Sphaerotheca fuliginea) was 100% and the “% of efficacy (protection)” value (Botrytis cinerea) was 100%.

For `COC1(C(=O)NC(C)C)CC(c2ccc3ncc(Br)cc3c2)=NO1` (single isomer, unassigned) [compound 284], the “log P” value [1, 3] was 2.58[a], the “% of efficacy (protection)” value (Septoria tritici) was 100% and the “% of efficacy (protection)” value (Sphaerotheca fuliginea) was 100%.

In the case of `CC(C)NC(=O)C1(C)CC(c2ccc3ncc(I)cc3c2)=NO1` (centres unmarked) [Compound No. 38, 3-(3-iodoquinolin-6-yl)-N-isopropyl-5-methyl-4,5-dihydro-1,2-oxazole-5-carboxamide], the chromatographic logP ([1]; pH 2.7) is reported as 2.88, the “% of efficacy (protection)” value (Septoria tritici) is reported as 100% and the “% of efficacy (protection)” value (Sphaerotheca fuliginea) is reported as 97%. For the same molecule, the “% of efficacy (protection)” value (Botrytis cinerea) was 100%.

In the case of `CC(C)NC(=O)C1(C)CC(c2ccc3ncc(Cl)cc3c2)=NO1` (centres unmarked) [Compound No. 55], the chromatographic logP ([1]; pH 2.7) is reported as 2.61, the “% of efficacy (protection)” value (Septoria tritici) is reported as 100% and the “% of efficacy (protection)” value (Sphaerotheca fuliginea) is reported as 94% and 98%. For the same molecule, the “% of efficacy (protection)” value (Botrytis cinerea) was 99%.

With `CC(C)NC(=O)C1(C)CC(c2ccc3ncc(C#C[Si](C)(C)C)cc3c2)=NO1` (centres unmarked) [Compound No. 150] the chromatographic logP ([1]; HPLC reversed phase, pH 2.7, 0.1% formic acid in water / acetonitrile, linear gradient 10% to 95% acetonitrile, calibration with alkan-2-ones, read-out: log P (HCOOH)) was 4.41, the “% of efficacy (protection)” value (Septoria tritici) was 100% and the “% of efficacy (protection)” value (Sphaerotheca fuliginea) was 95%.

With `CCc1cnc2ccc(C3=NOC(C)(C(=O)NC(C)C)C3)cc2c1` (centres unmarked) [Compound No. 259] the chromatographic logP ([1]; pH 2.7) was 1.94, the “% of efficacy (protection)” value (Septoria tritici) was 100% and the “% of efficacy (protection)” value (Sphaerotheca fuliginea) was 94%. For the same molecule, the “% of efficacy (protection)” value (Botrytis cinerea) was 75%.

With `CCn1cc(CNC(=O)C2(C(F)(F)F)CC(c3cc4cc(Br)cnc4c(F)c3F)=NO2)c(C)n1` (centres unmarked) [compound 6] the “Log P” value ([1]; method [a]: HPLC/LC-MS on reversed phase at pH 2.7, 0.1% formic acid in water and acetonitrile, linear gradient 10% to 95% acetonitrile) was 3.23^[a], the “% of efficacy (protection)” value (Septoria tritici) was 71% and the “% of efficacy (protection)” value (Sphaerotheca fuliginea) was 89%.

In the case of `CCn1cc(CNC(=O)C2(CF)CC(c3ccc4ncc(Br)cc4c3)=NO2)c(C)n1` (centres unmarked) [compound 75], the “log P” value [1, 4] is reported as 2.31^[a], the “% of efficacy (protection)” value (Sphaerotheca fuliginea) is reported as 94% and 98% and the “% of efficacy (protection)” value (Botrytis cinerea) is reported as 93%.

With `Cn1cc(CNC(=O)C2(C)CC(c3ccc4ncc(Br)cc4c3)=NO2)cn1` (centres unmarked) [compound 176] the “log P” value [1, 4] was 2.07^[a], the “% of efficacy (protection)” value (Septoria tritici) was 93% and the “% of efficacy (protection)” value (Sphaerotheca fuliginea) was 83%.

In the case of `CCn1cc(CNC(=O)C23CCCC2C(c2ccc4ncc(Br)cc4c2)=NO3)c(C)n1` (centres unmarked) [compound 261], the “log P” value [1, 3] is reported as 2.75^[a], the “% of efficacy (protection)” value (Septoria tritici) is reported as 97% and the “% of efficacy (protection)” value (Sphaerotheca fuliginea) is reported as 85%.

In the case of `C#Cc1cnc2ccc(C3=NOC(C)(C(=O)NC4CC4)C3)cc2c1` (centres unmarked) [compound 314], the “log P” value [1, 3] is reported as 2.13[a], the “% of efficacy (protection)” value (Septoria tritici) is reported as 100% and the “% of efficacy (protection)” value (Sphaerotheca fuliginea) is reported as 81%.

For `CC1(C(=O)NCCCOCC(F)(F)F)CC(c2ccc3ncc(Br)cc3c2)=NO1` (centres unmarked) [compound 323], the “log P” value [1, 3] was 3.11[a], the “% of efficacy (protection)” value (Septoria tritici) was 78% and the “% of efficacy (protection)” value (Sphaerotheca fuliginea) was 81%.

For `C#Cc1cnc2ccc(C3=NOC(C)(C(=O)NCCCOCC(F)(F)F)C3)cc2c1` (centres unmarked) [compound 326], the “log P” value [1, 3] was 2.77[a], the “% of efficacy (protection)” value (Septoria tritici) was 98% and the “% of efficacy (protection)” value (Sphaerotheca fuliginea) was 88%.

For `CC(NC(=O)C1(C)CC(c2ccc3ncc(Br)cc3c2)=NO1)C1CC1` (centres unmarked) [compound 332], the “log P” value [1, 3] was 3.17[a], the “% of efficacy (protection)” value (Septoria tritici) was 100% and the “% of efficacy (protection)” value (Sphaerotheca fuliginea) was 98%.

For `C#Cc1cnc2ccc(C3=NOC(C)(C(=O)NC(C)c4nccs4)C3)cc2c1` (centres unmarked) [compound 334], the “log P” value [1, 3] was 2.28[a], the “% of efficacy (protection)” value (Septoria tritici) was 100% and the “% of efficacy (protection)” value (Sphaerotheca fuliginea) was 94%.

For `C#Cc1cnc2ccc(C3=NOC(C)(C(=O)NC(C)c4ccsc4)C3)cc2c1` (centres unmarked) [compound 336], the “log P” value [1, 3] was 2.96[a], the “% of efficacy (protection)” value (Septoria tritici) was 100% and the “% of efficacy (protection)” value (Sphaerotheca fuliginea) was 81%.

In the case of `CC(NC(=O)C1(C)CC(c2ccc3ncc(Br)cc3c2)=NO1)c1ccncc1` (centres unmarked) [compound 337], the “log P” value [1, 3] is reported as 1.44[a], the “% of efficacy (protection)” value (Septoria tritici) is reported as 78% and the “% of efficacy (protection)” value (Sphaerotheca fuliginea) is reported as 88%.

For `C#Cc1cnc2ccc(C3=NOC(C)(C(=O)NC(C)C4CCOC4)C3)cc2c1` (centres unmarked) [compound 341], the “log P” value [1, 3] was 2.18[a], the “% of efficacy (protection)” value (Septoria tritici) was 100% and the “% of efficacy (protection)” value (Sphaerotheca fuliginea) was 98%.

For `C#Cc1cnc2ccc(C3=NOC(C)(C(=O)NC(C)C(F)(F)F)C3)cc2c1` (centres unmarked) [compound 343], the “log P” value [1, 3] was 2.77[a], the “% of efficacy (protection)” value (Septoria tritici) was 100% and the “% of efficacy (protection)” value (Sphaerotheca fuliginea) was 100%.

For `CC(NC(=O)C1(C)CC(c2ccc3ncc(Br)cc3c2)=NO1)C(F)(F)F` (centres unmarked) [compound 345], the “log P” value [1, 3] was 3.13[a], the “% of efficacy (protection)” value (Septoria tritici) was 100% and the “% of efficacy (protection)” value (Sphaerotheca fuliginea) was 94%.

With `C#Cc1cnc2ccc(C3=NOC(OC)(C(=O)NCCCOCC)C3)cc2c1` (centres unmarked) [compound 408] the “log P” value [1, 2] was 2.39[a], the “% of efficacy (protection)” value (Septoria tritici) was 100% and the “% of efficacy (protection)” value (Sphaerotheca fuliginea) was 100%.

With `C#CCONC(=O)C1(C)CC(c2ccc3ncc(C#C)cc3c2)=NO1` (centres unmarked) [compound 503] the “log P” value [1, 2] was 1.95[a], the “% of efficacy (protection)” value (Septoria tritici) was 71% and the “% of efficacy (protection)” value (Sphaerotheca fuliginea) was 78%.

With `CCn1cc(CNC(=O)C2(OC)CC(c3cc(Cl)c4ncc(Br)cc4c3)=NO2)c(C)n1` (centres unmarked) [compound 566] the “log P” value [1, 3] was 2.78[a], the “% of efficacy (protection)” value (Septoria tritici) was 100% and the “% of efficacy (protection)” value (Sphaerotheca fuliginea) was 89%.

In the case of `C=CC1(C(=O)NC(C)C)CC(c2ccc3ncc(I)cc3c2)=NO1` (centres unmarked) [compound 731], the “log P” value ([1]; HPLC on reversed phase columns, method [a]: pH 2.7, 0.1% formic acid in water and acetonitrile, linear gradient 10% to 95% acetonitrile) is reported as 3.21[a], the “% of efficacy (protection)” value (Septoria tritici) is reported as 100% and the “% of efficacy (protection)” value (Sphaerotheca fuliginea) is reported as 75%.
